Publication PMC9098178, “SAR of Novel 3-Arylisoquinolinones: meta-Substitution on the Aryl Ring Dramatically Enhances Antiproliferative Activity through Binding to Microtubules” (Journal of Medicinal Chemistry, 2022)
Where two headings read alike, the source gives them in different places.

What was measured:
[1] = design: method as in PMID 21127197; conditions: after compound washout; cited from earlier work
MCF-7 = assay: SRB antiproliferative assay, MCF-7; assay type: cell-based, human
Method: Initially, the human breast cancer cell line MCF-7 was used in a prescreen analysis of the anticancer activity of 3-arylisoquinolinones. The cells were treated with serial concentrations of compounds 2–8 for 96 h prior to the assessment of proliferation using the sulforhodamine B (SRB) assay. For each compound, the concentration required to inhibit cell growth by 50% compared to that of the untreated control cells (IC50) was determined (Table 1).
(§1) All cell lines used in the study were human-derived and purchased from ATCC (Manassas, USA). Breast adenocarcinoma MCF-7 and MDA-MB-231 cell lines were cultured in DMEM. Hepatocellular carcinoma HepG2 and SNU423 cell lines were grown in MEME combined with 1% (v/v) nonessential amino acids and RPMI supplemented with 2 mM glutamine, respectively. Lung adenocarcinoma A549 and colorectal carcinoma HCT116 cells were grown in RPMI (+2 mM glutamine). All previous media were further supplemented with 10% heat-inactivated fetal bovine serum. The immortalized, normal liver THLE-3 cells were grown in BEGM (Lonza, Cat# CC-3170) onto precoated vessels according to ATCC’s instructions. Human umbilical vein endothelial cells (HUVECs) were cultured in EGM-2 (Lonza, Cat# CC-3162). All of the cells were maintained at 37 °C and 5% CO2 in a humidified incubator.
(§2) Screening of the antiproliferative activity of 3-arylisoquinolinones was performed using the SRB assay as previously described.[56] Exponentially growing HepG2, SNU423, MDA-MB-231, MCF-7, A549, HCT116, THLE-3, and HUVECs were seeded in 96-well plates at densities of 3000, 2000, 1500, 2500, 1000, 1000, 4000, and 4000 cells/well, respectively. These densities were experimentally selected so that the DMSO-treated cells (control) were approximately 80–90% confluent at the assay’s endpoint, and their optical density (OD) values fell within the assay’s linear range. After overnight incubation, the cells were treated with a range of concentrations of the respective compounds for 96 h, 24 h followed by 72 h compound-free incubation or 24 h (for HUVECs only). After treatment, cell monolayers were fixed with 10% (w/v) trichloroacetic acid for 1 h at 4 °C, washed, and dried. Then, the cells were exposed to 0.4% (w/v) SRB dye (prepared in 1% (v/v) acetic acid; Botium, Cat# 80100) for 15 min followed by several 1% acetic acid washing and then drying. Finally, the cellular protein-bound SRB was thoroughly dissolved in 10 mM Tris base, and the OD values were read at 510 nm using a plate reader (μQuant Microplate Spectrophotometer, Biotek, U.K.) coupled with Gen5 software (BioTek, U.K.). Compound-induced changes in cell growth were inferred from changes in OD values. Cell growth was calculated using the following formula: cell growth (%) = (ODtest/ODcontrol) × 100.

HepG2 cells = assay: Clonogenic assay; assay type: cell-based, human; conditions: 14 days; for colony formation: 0.5 or 1 μM
Method: HepG2 cells were treated with varying concentrations of 2–6 added once and kept for 14 days before counting colonies and calculating surviving fraction (Figure 2).
The ability of potential anticancer agents to prevent unlimited cell division and induce reproductive cell death was assessed using clonogenic assay as previously described.[57] In brief, HepG2 cells were seeded into six-well plates at a density of 1000 single cells/well and incubated for 10–12 h to adhere. The cells were then treated with DMSO (control) or a range of concentrations of 2–6 for 14 days. Afterward, the produced colonies were washed with phosphate-buffered saline (PBS), fixed with 70% ethanol for 20 min, and stained with 0.5% (w/v) methylene blue (prepared in 70% methanol). Following washing with water and drying, colonies (≥50 cells) were manually counted. The colony-forming efficiency (CFE) of cells was calculated by dividing the number of colonies formed by the number of cells seeded for each condition. The surviving fraction was determined by dividing the CFE of the treated cells by CFE of the control cells. A survival curve was generated by plotting the log of drug concentrations versus surviving fraction.

A549 = assay: SRB antiproliferative assay, A549; assay type: cell-based, human
Method: (§3) In light of this substantial change in activity between the meta and para compounds, a more comprehensive analysis of the antiproliferative activity was performed for the meta-/para-3-arylisoquinolinone pairs 2 and 3, 4, and 5, as well as 6. A panel of breast (MDA-MB-231), liver (HepG2, SNU423), lung (A549), and colon (HCT116) cancer cell lines were treated with the five 3-arylisoquinolinone analogs for 96 h followed by the SRB assay. The dose–response curves (including those for MCF-7) are presented in Figure S22, and their relevant IC50 values are listed in Table 1. […] The differential activity between meta- and para-3-arylisoquinolinones was reproduced in the National Cancer Institute (NCI) one-dose screen using a panel of 59 cancer cell lines (Figure S23).
as §1, §2

MDA-MB-231 = assay: SRB antiproliferative assay, MDA-MB-231; assay type: cell-based, human
Method: as §3, §1, §2

HCT116 = assay: SRB antiproliferative assay, HCT116; assay type: cell-based, human
Method: as §3, §1, §2

SNU423 = assay: SRB antiproliferative assay, SNU423; assay type: cell-based, human
Method: as §3, §1
as §2, with “After overnight incubation, the cells were treated with a range of concentrations of the respective compounds for 96 h, 24 h followed by 72 h compound-free incubation or 24 h (for HUVECs only).” left out

THLE-3 = assay: SRB antiproliferative assay, normal liver cell line THLE-3; assay type: cell-based, human; conditions: 24 h +drug/72 h –drug treatment, read-out: mean IC50 ± SEM, THLE-3
Source text: In the preceding experiments, the cells were continuously exposed to the compounds prior to scoring for the antiproliferative/cytotoxic effects. […] The meta compounds were also examined for the presence of differential antiproliferative activity against cancer cells over the normal liver cell line THLE-3. […] Moreover, the sensitivity of the six cancer cell lines toward compounds 2, 4, and 6 was markedly greater than that of THLE-3 cells.
All cell lines used in the study were human-derived and purchased from ATCC (Manassas, USA). Breast adenocarcinoma MCF-7 and MDA-MB-231 cell lines were cultured in DMEM. Hepatocellular carcinoma HepG2 and SNU423 cell lines were grown in MEME combined with 1% (v/v) nonessential amino acids and RPMI supplemented with 2 mM glutamine, respectively. Lung adenocarcinoma A549 and colorectal carcinoma HCT116 cells were grown in RPMI (+2 mM glutamine). […]
Screening of the antiproliferative activity of 3-arylisoquinolinones was performed using the SRB assay as previously described.[56] […] Finally, the cellular protein-bound SRB was thoroughly dissolved in 10 mM Tris base, and the OD values were read at 510 nm using a plate reader (μQuant Microplate Spectrophotometer, Biotek, U.K.) coupled with Gen5 software (BioTek, U.K.). […] Cell growth was calculated using the following formula: cell growth (%) = (ODtest/ODcontrol) × 100.

HepG2 = assay: SRB antiproliferative assay, HepG2; assay type: cell-based, human
Method: as §3, §1, §2

purified bovine tubulin = assay: Cell-free tubulin polymerization assay; assay type: biochemical; conditions: 10 μM, compared to DMSO control
Source text: Experimentally, the direct interaction of 4 with tubulin was investigated in a cell-free system using a tubulin polymerization assay. […] In control samples, α- and β-tubulin subunits were able to heterodimerize and assemble into microtubules in a time-dependent manner as indicated by increasing absorbance values over time. […] This indicates the incidence of fast polymerization associated with the formation of a denser microtubule mass. […] It is worth mentioning that microtubule dynamics can be potently altered by microtubule-stabilizing or -destabilizing compounds at doses 10- to 100-fold lower than those required for increasing or decreasing the microtubule polymer mass.[31]
The cell-free tubulin polymerization experiment was performed using the Tubulin Polymerization Assay Kit according to the manufacturer’s instructions (Millipore, Cat# 17-10194). The light absorbed by microtubules, which were formed upon tubulin polymerization, is directly proportional to the polymer mass. […] Immediately, the plate was placed in a 37 °C-prewarmed plate reader (BMG LABTECH FLUOstar Omega, Germany) and the absorbance was measured at 1 min intervals for 60 min at a wavelength of 350 nm. The delta absorbance (ΔA) was calculated by subtracting the absorbance values of zero time from those of the subsequent time points and then plotted versus time.

[2] = test system: panel of 59 cancer cell lines; assay: NCI one-dose screen; assay type: cell-based; conditions: 10 µM, 48 h, SRB
Method: as §3
Figure S23. NCI One-Dose Mean graphs for 3-arylisoquinolinones 4, 5 […]
In NCI one-dose screen, the 59 cell lines (classified into 9 groups) were exposed to 4, 5 and 7 at a single dose of 10 µM for 48 h followed by SRB assay. The one-dose data were reported as a mean graph of the growth percentage of treated cells, as relative to the cell number of both the no-drug control and the zero time (before adding the test agent). Values between 0 and 100 indicate growth inhibition, whereas values less than 0 indicate lethality. For instance, a value of 40 means 60% growth inhibition; 0, no growth throughout the experiment; -40, 40% lethality; and - 100, all cells are dead.1
A) One-dose mean graph for 3-arylisoquinolinone 4 (NSC number 795055)

[3] = 24 h +drug/72 h –drug treatment, read-out: mean IC50 ± SEM, MCF-7
[4] = 96 h treatment, mean ± SEM, read-out: IC50 MCF-7 (prescreen)
[5] = 24 h +drug/72 h –drug treatment, read-out: mean IC50 ± SEM, A549
[6] = 96 h treatment, mean ± SEM, read-out: IC50 A549
[7] = 24 h +drug/72 h –drug treatment, read-out: mean IC50 ± SEM, MDA-MB-231
[8] = 96 h treatment, mean ± SEM, read-out: IC50 MDA-MB-231
[9] = 24 h +drug/72 h –drug treatment, read-out: mean IC50 ± SEM, HCT116
[10] = 96 h treatment, mean ± SEM, read-out: IC50 HCT116
[11] = 24 h +drug/72 h –drug treatment, read-out: mean IC50 ± SEM, SNU423
[12] = 96 h treatment, mean ± SEM, read-out: IC50 SNU423
[13] = 24 h +drug/72 h –drug treatment, read-out: mean IC50 ± SEM, HepG2
[14] = 96 h treatment, mean ± SEM, read-out: IC50 HepG2
[15] = Homo sapiens, MCF7, 96 h treatment, mean ± SEM, read-out: IC50 MCF-7 (prescreen)

COc1cc2c(c(OC)c1OC)-c1ccc(OC)c(=O)cc1[C@@H](NC(C)=O)CC2 [colchicine]
reversibility of mitotic blockade [1]: irreversible

COc1cccc(-c2cc3cc(F)ccc3c(=O)[nH]2)c1 [compound 2, 6-Fluoro-3-(3-methoxyphenyl)isoquinolin-1(2H)-one]
IC50 (MCF-7; [3]): 1.43 ± 0.3 µM | IC50 (MCF-7; [4]): 0.75 ± 0.13 µM | colony formation (HepG2 cells): No colonies were apparent | IC50 (A549; [5]): 0.83 ± 0.17 µM | IC50 (A549; [6]): 0.37 ± 0.01 µM | IC50 (MDA-MB-231; [7]): 0.19 ± 0.04 µM | IC50 (MDA-MB-231; [8]): 0.17 ± 0.01 µM | IC50 (HCT116; [9]): 0.2 ± 0.01 µM | IC50 (HCT116; [10]): 0.22 ± 0.02 µM | IC50 (SNU423; [11]): 0.58 ± 0.04 µM | IC50 (SNU423; [12]): 0.41 ± 0.03 µM | IC50 (THLE-3): > 25 µM | IC50 (HepG2; [13]): 2.33 ± 0.22 µM | IC50 (HepG2; [14]): 3.12 ± 0.34 µM

COc1cccc(-c2cc3ccc(F)cc3c(=O)[nH]2)c1 [compound 6]
IC50 (MCF-7; [3]): 1.6 ± 0.4 µM | IC50 (MCF-7; [4]): 0.68 ± 0.13 µM | colony formation (HepG2 cells): No colonies were apparent | IC50 (A549; [5]): 0.47 ± 0.03 µM | IC50 (A549; [6]): 0.38 ± 0.02 µM | IC50 (MDA-MB-231; [7]): 0.22 ± 0.02 µM | IC50 (MDA-MB-231; [8]): 0.21 ± 0.05 µM | IC50 (HCT116; [9]): 0.21 ± 0.01 µM | IC50 (HCT116; [10]): 0.19 ± 0.01 µM | IC50 (SNU423; [11]): 0.68 ± 0.09 µM | IC50 (SNU423; [12]): 0.6 ± 0.06 µM | IC50 (THLE-3): > 25 µM | IC50 (HepG2; [13]): 1.4 ± 0.06 µM | IC50 (HepG2; [14]): 3.03 ± 0.61 µM

COc1ccc(-c2cc3cc(F)ccc3c(=O)[nH]2)cc1 [compound 3, 6-Fluoro-3-(4-methoxyphenyl)isoquinolin-1(2H)-one]
IC50 (MCF-7; [15]): > 50 µM | surviving fraction (HepG2 cells; concentrations as high as 20 μM): 0.5 | IC50 (A549; Homo sapiens, A549, 96 h treatment, mean ± SEM, read-out: IC50 A549): > 50 µM | IC50 (MDA-MB-231; Homo sapiens, MDA-MB-231, 96 h treatment, mean ± SEM, read-out: IC50 MDA-MB-231): > 50 µM | IC50 (HCT116; Homo sapiens, HCT-116, 96 h treatment, mean ± SEM, read-out: IC50 HCT116): > 50 µM | IC50 (SNU423; Homo sapiens, SNU-423, 96 h treatment, mean ± SEM, read-out: IC50 SNU423): > 50 µM | IC50 (HepG2; Homo sapiens, HepG2, 96 h treatment, mean ± SEM, read-out: IC50 HepG2): > 50 µM

CC(=O)O[C@H]1C(=O)[C@@]2(C)[C@H]([C@H](OC(=O)c3ccccc3)[C@]3(O)C[C@H](OC(=O)[C@H](O)[C@@H](NC(=O)c4ccccc4)c4ccccc4)C(C)=C1C3(C)C)[C@]1(OC(C)=O)CO[C@@H]1C[C@@H]2O [paclitaxel, reference compound]
effect on tubulin polymerization (polymerizing control) (purified bovine tubulin): higher absorbance values briefly after the onset of the polymerization process

COC(=O)Nc1nc2cc(C(=O)c3cccs3)ccc2[nH]1 [nocodazole]
reversibility of mitotic blockade [1]: highly reversible

CN[C@H]1CCc2cc(OC)c(OC)c(OC)c2-c2ccc(OC)c(=O)cc21 [colcemid]
reversibility of mitotic blockade [1]: highly reversible

CC[C@]1(O)C[C@H]2CN(CCc3c([nH]c4ccccc34)[C@@](C(=O)OC)(c3cc4c(cc3OC)N(C=O)[C@H]3[C@@](O)(C(=O)OC)[C@H](OC(C)=O)[C@]5(CC)C=CCN6CC[C@]43[C@@H]65)C2)C1 [vincristine]
reversibility of mitotic blockade [1]: irreversible

7-Fluoro-3-(4-methoxyphenyl)isoquinolin-1(2H)-one [compound 7]
IC50 (MCF-7; [4]): > 50 µM | inhibition of growth in NCI one-dose screen [2]: less active

O=c1[nH]c(-c2ccc(F)cc2)cc2ccc(F)cc12 [compound 8]
melting point: 294 to 296 °C | IC50 (MCF-7; [15]): > 50 µM
